Measurements: PubChem BioAssay AID248 (DTP/NCI, 2004)
Values joined by “and” are separate entries in the source; they are usually repeats but may differ in a detail not shown here. Equal entries are not always repeated. Inconclusive results and toxic doses are left out.

Test system: L1210 leukemia ip in BDF1 mice, survival T/C
Assay: NCI In Vivo Anticancer Drug Screen. Data for tumor model L1210 Leukemia (intraperitoneal) in B6D2F1 (BDF1) mice
Conditions: endpoint: mean survival time, higher = longer survival
How it was run: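 In this screen, tumor-bearing mice given compound are compared to those given vehicle, and their survival values are reported as a treated-to-control quotient.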

[1] = dose: 100.0 mg/kg/injection, schedule: Q01DX009 (ip), vehicle: Klucel (hydroxypropylcellulose) (HPC)
[2] = dose: 100.0 mg/kg/injection, schedule: Q04DX003 (ip), vehicle: Klucel (hydroxypropylcellulose) (HPC)
[3] = dose: 200.0 mg/kg/injection, schedule: Q01DX009 (ip), vehicle: Klucel (hydroxypropylcellulose) (HPC)
[4] = dose: 200.0 mg/kg/injection, schedule: Q04DX003 (ip), vehicle: Klucel (hydroxypropylcellulose) (HPC)
[5] = dose: 400.0 mg/kg/injection, schedule: Q01DX009 (ip), vehicle: Klucel (hydroxypropylcellulose) (HPC)
[6] = dose: 400.0 mg/kg/injection, schedule: Q04DX003 (ip), vehicle: Klucel (hydroxypropylcellulose) (HPC)
[7] = dose: 100.0 mg/kg/injection, schedule: Q04DX003 (ip), vehicle: saline with Tween-80
[8] = dose: 200.0 mg/kg/injection, schedule: Q04DX003 (ip), vehicle: saline with Tween-80
[9] = dose: 400.0 mg/kg/injection, schedule: Q04DX003 (ip), vehicle: saline with Tween-80
[10] = dose: 100.0 mg/kg/injection, schedule: Q04DX002 (ip), vehicle: Klucel (hydroxypropylcellulose) (HPC)
[11] = dose: 200.0 mg/kg/injection, schedule: Q04DX002 (ip), vehicle: Klucel (hydroxypropylcellulose) (HPC)
[12] = dose: 400.0 mg/kg/injection, schedule: Q04DX002 (ip), vehicle: Klucel (hydroxypropylcellulose) (HPC)
[13] = dose: 100.0 mg/kg/injection, schedule: Q01DX009 (ip), vehicle: saline with Tween-80
[14] = dose: 200.0 mg/kg/injection, schedule: Q01DX009 (ip), vehicle: saline with Tween-80
[15] = dose: 400.0 mg/kg/injection, schedule: Q01DX009 (ip), vehicle: saline with Tween-80

CC(=O)OC1c2cc(Cl)ccc2-c2c(Cl)cc(Cl)cc21 (configuration not stated)
T/C (dose: 100.0 mg/kg/injection, schedule: Q01DX001 (ip), vehicle: carboxymethylcellulose (CMC)): 95 % of control | T/C (dose: 200.0 mg/kg/injection, schedule: Q01DX001 (ip), vehicle: carboxymethylcellulose (CMC)): 95 % of control | T/C (dose: 400.0 mg/kg/injection, schedule: Q01DX001 (ip), vehicle: carboxymethylcellulose (CMC)): 95 % of control

Cc1ccc(S(=O)(=O)NC(CSSCC(NS(=O)(=O)c2ccc(C)cc2)C(=O)OC(C)(C)C)C(=O)OC(C)(C)C)cc1 (configuration not stated)
T/C [1]: 101 % of control | T/C [2]: 98 % of control | T/C [3]: 106 % of control | T/C [4]: 101 % of control | T/C [5]: 95 % of control | T/C [6]: 98 % of control

CC1OCOC2COCOC2C1O (configuration not stated)
T/C [1]: 92 % of control | T/C [3]: 94 % of control | T/C [5]: 97 % of control

CCSC(=O)CC
T/C [7]: 104 % of control | T/C [8]: 100 % of control | T/C [9]: 95 % of control

ClCCC1OCCCO1
T/C (dose: 50.0 mg/kg/injection, schedule: Q01DX009 (ip), vehicle: saline + alcohol): 96 % of control | T/C (dose: 100.0 mg/kg/injection, schedule: Q01DX009 (ip), vehicle: saline + alcohol): 100 % of control | T/C (dose: 200.0 mg/kg/injection, schedule: Q01DX009 (ip), vehicle: saline + alcohol): 96 % of control

CCCCCCCCc1ccc(NNC(N)=S)cc1
T/C (dose: 3.12 mg/kg/injection, schedule: Q01DX009 (ip), vehicle: saline): 93 % of control | T/C (dose: 6.25 mg/kg/injection, schedule: Q01DX009 (ip), vehicle: saline): 101 % of control and 92 % of control | T/C (dose: 12.5 mg/kg/injection, schedule: Q01DX009 (ip), vehicle: saline): 103 % of control | T/C (dose: 25.0 mg/kg/injection, schedule: Q01DX009 (ip), vehicle: saline): 100 % of control

COc1cc(C=Nc2ccc3ccccc3c2)ccc1N(CCCl)CCCl
T/C (dose: 0.9 mg/kg/injection, schedule: Q01DX009 (ip), vehicle: carboxymethylcellulose (CMC)): 102 % of control | T/C (dose: 1.3 mg/kg/injection, schedule: Q01DX009 (ip), vehicle: carboxymethylcellulose (CMC)): 118 % of control | T/C (dose: 1.5 mg/kg/injection, schedule: Q01DX009 (ip), vehicle: carboxymethylcellulose (CMC)): 108 % of control | T/C (dose: 3.0 mg/kg/injection, schedule: Q01DX009 (ip), vehicle: carboxymethylcellulose (CMC)): 114 % of control and 117 % of control | T/C (dose: 6.0 mg/kg/injection, schedule: Q01DX009 (ip), vehicle: carboxymethylcellulose (CMC)): 122 % of control | T/C (dose: 20.0 mg/kg/injection, schedule: Q01DX009 (ip), vehicle: carboxymethylcellulose (CMC)): 119 % of control | T/C (dose: 30.0 mg/kg/injection, schedule: Q01DX009 (ip), vehicle: carboxymethylcellulose (CMC)): 100 % of control | T/C (dose: 40.0 mg/kg/injection, schedule: Q01DX001 (ip), vehicle: carboxymethylcellulose (CMC)): 151 % of control | T/C (dose: 75.0 mg/kg/injection, schedule: Q01DX001 (ip), vehicle: carboxymethylcellulose (CMC)): 119 % of control

Cc1c(/C=N/NC(N)=S)[nH]c(=O)[nH]c1=O
T/C (dose: 100.0 mg/kg/injection, schedule: Q01DX001 (ip), vehicle: saline): 94 % of control | T/C (dose: 200.0 mg/kg/injection, schedule: Q01DX001 (ip), vehicle: saline): 94 % of control | T/C (dose: 400.0 mg/kg/injection, schedule: Q01DX001 (ip), vehicle: saline): 109 % of control

O=C(c1ccc(N2CC=C(c3ccccc3)CC2)cc1)C1CC1
T/C [10]: 92 % of control | T/C [11]: 95 % of control | T/C [12]: 89 % of control

COC1=CC(=O)C(C2CC(=O)c3c(O)cc(O)cc3O2)=CC1=O (configuration not stated)
T/C (dose: 25.0 mg/kg/injection, schedule: Q01DX009 (ip), vehicle: saline with Tween-80): 92 % of control | T/C (dose: 50.0 mg/kg/injection, schedule: Q01DX009 (ip), vehicle: saline with Tween-80): 98 % of control | T/C [13]: 103 % of control

Cn1[nH]c(=O)c2ncccc2c1=O
T/C [10]: 97 % of control | T/C (dose: 100.0 mg/kg/injection, schedule: Q04DX002 (ip), vehicle: saline): 94 % of control | T/C [11]: 97 % of control | T/C (dose: 200.0 mg/kg/injection, schedule: Q04DX002 (ip), vehicle: saline): 94 % of control | T/C (dose: 400.0 mg/kg/injection, schedule: Q04DX002 (ip), vehicle: saline): 97 % of control

Cc1ccc([N+](=O)[O-])cc1NC(=O)COc1cc(Cl)c(Cl)cc1Cl
T/C [13]: 89 % of control | T/C [14]: 94 % of control | T/C [15]: 98 % of control

O=C(O)c1ccc(P(=O)(O)O)cc1[N+](=O)[O-]
T/C (dose: 50.0 mg/kg/injection, schedule: Q04DX003 (ip), vehicle: saline): 95 % of control | T/C (dose: 100.0 mg/kg/injection, schedule: Q04DX003 (ip), vehicle: saline): 100 % of control

Oc1ccc(C2N(c3ccccc3)CCN2c2ccccc2)cc1
T/C [13]: 111 % of control | T/C [7]: 92 % of control | T/C [14]: 103 % of control | T/C [8]: 97 % of control | T/C [15]: 89 % of control | T/C [9]: 101 % of control

Oc1ccc(C2C=CCC2)cc1C1C=CCC1 (configuration not stated)
T/C [1]: 105 % of control | T/C [2]: 100 % of control | T/C [3]: 100 % of control | T/C [4]: 96 % of control | T/C [5]: 94 % of control | T/C [6]: 109 % of control

COc1c(O)cc2oc3cc(O)c(CC=C(C)C)c(O)c3c(=O)c2c1CC=C(C)C
T/C (dose: 100.0 mg/kg/injection, schedule: Q01DX001 (ip), vehicle: Klucel (hydroxypropylcellulose) (HPC)): 97 % of control | T/C [1]: 96 % of control | T/C [2]: 105 % of control | T/C (dose: 200.0 mg/kg/injection, schedule: Q01DX001 (ip), vehicle: Klucel (hydroxypropylcellulose) (HPC)): 97 % of control | T/C [4]: 105 % of control | T/C (dose: 400.0 mg/kg/injection, schedule: Q01DX001 (ip), vehicle: Klucel (hydroxypropylcellulose) (HPC)): 98 % of control | T/C [6]: 100 % of control

Cc1cc(C(=O)Nc2ccc(C3=NCCN3)cc2)ccc1C(=O)Nc1ccc(C2=NCCN2)cc1
T/C (dose: 3.75 mg/kg/injection, schedule: Q01DX Z (ip), vehicle: saline): 98 % of control | T/C (dose: 7.5 mg/kg/injection, schedule: Q01DX Z (ip), vehicle: saline): 102 % of control | T/C (dose: 15.0 mg/kg/injection, schedule: Q01DX Z (ip), vehicle: saline): 119 % of control | T/C (dose: 60.0 mg/kg/injection, schedule: Q01DX Z (ip), vehicle: saline): 196 % of control | T/C (dose: 120.0 mg/kg/injection, schedule: Q01DX Z (ip), vehicle: saline): 157 % of control | T/C (dose: 240.0 mg/kg/injection, schedule: Q01DX Z (ip), vehicle: saline): 175 % of control

O=C(/C=C/c1ccco1)c1ccc(F)cc1
T/C (dose: 75.0 mg/kg/injection, schedule: Q01DX001 (ip), vehicle: saline): 94 % of control | T/C (dose: 150.0 mg/kg/injection, schedule: Q01DX001 (ip), vehicle: saline): 98 % of control | T/C (dose: 300.0 mg/kg/injection, schedule: Q01DX001 (ip), vehicle: saline): 102 % of control

CCOC(OCC)C(C)(C)CNC
T/C (dose: 100.0 mg/kg/injection, schedule: Q01DX001 (ip), vehicle: saline sonified): 90 % of control | T/C (dose: 200.0 mg/kg/injection, schedule: Q01DX001 (ip), vehicle: saline sonified): 101 % of control | T/C (dose: 400.0 mg/kg/injection, schedule: Q01DX001 (ip), vehicle: saline sonified): 107 % of control

N#C/C(=C\C1CCC(Cl)C(Cl)C1)C1CCC([N+](=O)[O-])CC1 (configuration not stated)
T/C (dose: 100.0 mg/kg/injection, schedule: Q04DX002 (ip), vehicle: saline with Tween-80): 91 % of control | T/C (dose: 400.0 mg/kg/injection, schedule: Q04DX002 (ip), vehicle: saline with Tween-80): 91 % of control

CC(=O)c1c(C)n(C)c2ccccc12
T/C (dose: 100.0 mg/kg/injection, schedule: Q01DX001 (ip), vehicle: saline with Tween-80): 103 % of control | T/C [10]: 95 % of control | T/C [7]: 95 % of control | T/C (dose: 200.0 mg/kg/injection, schedule: Q01DX001 (ip), vehicle: saline with Tween-80): 101 % of control | T/C [11]: 98 % of control | T/C [8]: 92 % of control | T/C (dose: 400.0 mg/kg/injection, schedule: Q01DX001 (ip), vehicle: saline with Tween-80): 103 % of control | T/C [12]: 109 % of control | T/C [9]: 93 % of control
